According to ChEMBL document CHEMBL1201862, “PubChem BioAssay data set” (2004):
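48-hour exposure; five concentrations; linearly interpolated endpoints. At the GI50, growth is halved.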 Calls of active or inactive are those of the source. No stated cut-off is given here; in the data, active = GI50 up to about 1.1 µM and inactive = higher.

Tests used:
Experiment in all cases: inhibition of tumour cell growth, NCI panel, 48 h
786-0 = system: 786-0
A498 = system: A498
A549 = system: A549
ACHN = system: ACHN
BT-549 = system: BT-549
CAKI-1 = system: CAKI-1
CCRF-CEM = system: CCRF-CEM
COLO 205 = system: COLO 205
DU-145 = system: DU-145
EKVX = system: EKVX
HCC 2998 = system: HCC 2998
HCT-116 = system: HCT-116
HCT-15 = system: HCT-15
HL-60 = system: HL-60
HOP-62 = system: HOP-62
HOP-92 = system: HOP-92
HT-29 = system: HT-29
Hs-578T = system: Hs-578T
IGROV-1 = system: IGROV-1
K562 = system: K562
KM12 = system: KM12
LOX IMVI = system: LOX IMVI
M14 = system: M14
MCF7 = system: MCF7
MDA-MB-231 = system: MDA-MB-231
MDA-MB-435 = system: MDA-MB-435
MOLT-4 = system: MOLT-4
Malme-3M = system: Malme-3M
NCI-H226 = system: NCI-H226
NCI-H23 = system: NCI-H23
NCI-H460 = system: NCI-H460
NCI-H522 = system: NCI-H522
NCI/ADR-RES = system: NCI/ADR-RES
OVCAR-3 = system: OVCAR-3
OVCAR-4 = system: OVCAR-4
OVCAR-5 = system: OVCAR-5
OVCAR-8 = system: OVCAR-8
PC-3 = system: PC-3
RPMI-8226 = system: RPMI-8226
RXF 393 = system: RXF 393
SF-268 = system: SF-268
SF-295 = system: SF-295
SK-MEL-28 = system: SK-MEL-28
SK-MEL-2 = system: SK-MEL-2
SK-MEL-5 = system: SK-MEL-5
SK-OV-3 = system: SK-OV-3
SN12C = system: SN12C
SNB-19 = system: SNB-19
SNB-75 = system: SNB-75
SR = system: SR
SW-620 = system: SW-620
T47D = system: T47D
TK-10 = system: TK-10
U-251 = system: U-251
UACC-257 = system: UACC-257
UACC-62 = system: UACC-62
UO-31 = system: UO-31
MDA-N = system: MDA-N
SF-539 = system: SF-539

Structure (SMILES): COc1ccc(N2C(=O)C3c4[nH]c5ccc(C)cc5c4C4CCC(c5ccccc5)CC4C3C2=O)cc1 (stereo not drawn)
- GI50 (786-0): 9.64 µM (inactive)
- GI50 (A498): 22.9 µM (inactive)
- GI50 (A549): > 89.1 µM (inactive)
- GI50 (ACHN): 32.6 µM (inactive)
- GI50 (BT-549): 42.3 µM (inactive)
- GI50 (CAKI-1): > 33.1 µM (inactive)
- GI50 (CCRF-CEM): 4.9 µM (inactive)
- GI50 (COLO 205): > 100 µM (inactive)
- GI50 (DU-145): > 100 µM (inactive)
- GI50 (EKVX): > 64.3 µM (inactive)
- GI50 (HCC 2998): > 100 µM (inactive)
- GI50 (HCT-116): > 57.7 µM (inactive)
- GI50 (HCT-15): > 75.9 µM
- GI50 (HL-60): 12.8 µM (inactive)
- GI50 (HOP-62): 7.05 µM (inactive)
- GI50 (HOP-92): 14.6 µM (inactive)
- GI50 (HT-29): > 100 µM (inactive)
- GI50 (Hs-578T): 6.84 µM (inactive)
- GI50 (IGROV-1): > 51.3 µM (inactive)
- GI50 (K562): 25.8 µM (inactive)
- GI50 (KM12): > 100 µM (inactive)
- GI50 (LOX IMVI): > 57.3 µM (inactive)
- GI50 (M14): 47.1 µM (inactive)
- GI50 (MCF7): > 83.6 µM (inactive)
- GI50 (MDA-MB-231): 8.41 µM (inactive)
- GI50 (MDA-MB-435): > 100 µM (inactive)
- GI50 (MOLT-4): 41.2 µM (inactive)
- GI50 (Malme-3M): > 100 µM (inactive)
- GI50 (NCI-H226): > 100 µM (inactive)
- GI50 (NCI-H23): 33.7 µM (inactive)
- GI50 (NCI-H460): 39 µM (inactive)
- GI50 (NCI-H522): > 100 µM (inactive)
- GI50 (NCI/ADR-RES): > 100 µM (inactive)
- GI50 (OVCAR-3): > 100 µM (inactive)
- GI50 (OVCAR-4): > 32.5 µM (inactive)
- GI50 (OVCAR-5): > 100 µM (inactive)
- GI50 (OVCAR-8): 22.5 µM (inactive)
- GI50 (PC-3): > 100 µM (inactive)
- GI50 (RPMI-8226): > 82.8 µM (inactive)
- GI50 (RXF 393): 12.6 µM (inactive)
- GI50 (SF-268): 11.8 µM (inactive)
- GI50 (SF-295): 20.6 µM (inactive)
- GI50 (SK-MEL-28): > 100 µM (inactive)
- GI50 (SK-MEL-2): 28.5 µM (inactive)
- GI50 (SK-MEL-5): > 100 µM (inactive)
- GI50 (SK-OV-3): 18.9 µM (inactive)
- GI50 (SN12C): > 100 µM (inactive)
- GI50 (SNB-19): 14.3 µM (inactive)
- GI50 (SNB-75): 4.02 µM (inactive)
- GI50 (SR): 5.41 µM (inactive)
- GI50 (SW-620): > 100 µM (inactive)
- GI50 (T47D): > 100 µM (inactive)
- GI50 (TK-10): 28.6 µM (inactive)
- GI50 (U-251): 12.9 µM (inactive)
- GI50 (UACC-257): > 100 µM (inactive)
- GI50 (UACC-62): 22.6 µM (inactive)
- GI50 (UO-31): > 89.5 µM (inactive)

Structure (SMILES): Cc1ccc(C)c(NC(=O)C(=O)C(c2cnc3ccc([N+](=O)[O-])cc3n2)[N+](=O)[O-])c1 (stereo not drawn)
- GI50 (786-0): 52.8 µM (inactive)
- GI50 (A498): 33.2 µM (inactive)
- GI50 (A549): 58.3 µM (inactive)
- GI50 (ACHN): 26.6 µM (inactive)
- GI50 (BT-549): 53.5 µM (inactive)
- GI50 (CCRF-CEM): 24.4 µM (inactive)
- GI50 (COLO 205): 60.8 µM (inactive)
- GI50 (DU-145): 77.4 µM (inactive)
- GI50 (EKVX): 30.8 µM (inactive)
- GI50 (HCC 2998): 55.8 µM (inactive)
- GI50 (HCT-116): 58.6 µM (inactive)
- GI50 (HCT-15): 76.6 µM
- GI50 (HL-60): 14.9 µM (inactive)
- GI50 (HOP-62): 20.9 µM (inactive)
- GI50 (HOP-92): 36.2 µM (inactive)
- GI50 (HT-29): 61.2 µM (inactive)
- GI50 (Hs-578T): > 100 µM (inactive)
- GI50 (IGROV-1): 26.5 µM (inactive)
- GI50 (K562): 41.4 µM (inactive)
- GI50 (KM12): 20.1 µM (inactive)
- GI50 (M14): 56.9 µM (inactive)
- GI50 (MCF7): > 100 µM (inactive)
- GI50 (MDA-MB-435): 46.2 µM (inactive)
- GI50 (MDA-N): 70.6 µM (inactive)
- GI50 (MOLT-4): 25.9 µM (inactive)
- GI50 (Malme-3M): > 100 µM (inactive)
- GI50 (NCI-H226): 34.1 µM (inactive)
- GI50 (NCI-H23): > 100 µM (inactive)
- GI50 (NCI-H460): 42.7 µM (inactive)
- GI50 (NCI-H522): 21.1 µM (inactive)
- GI50 (NCI/ADR-RES): 25.8 µM (inactive)
- GI50 (OVCAR-3): 68.1 µM (inactive)
- GI50 (OVCAR-4): 17.3 µM (inactive)
- GI50 (OVCAR-5): > 100 µM (inactive)
- GI50 (OVCAR-8): 27 µM (inactive)
- GI50 (PC-3): 52.1 µM (inactive)
- GI50 (RPMI-8226): 0.102 µM (active)
- GI50 (RXF 393): 50.1 µM (inactive)
- GI50 (SF-268): > 100 µM (inactive)
- GI50 (SF-295): > 100 µM (inactive)
- GI50 (SF-539): > 100 µM (inactive)
- GI50 (SK-MEL-28): > 100 µM (inactive)
- GI50 (SK-MEL-2): > 100 µM (inactive)
- GI50 (SK-MEL-5): 48.3 µM (inactive)
- GI50 (SK-OV-3): 32.4 µM (inactive)
- GI50 (SN12C): 59.7 µM (inactive)
- GI50 (SNB-19): > 100 µM (inactive)
- GI50 (SNB-75): 81.7 µM (inactive)
- GI50 (SR): 34.4 µM (inactive)
- GI50 (SW-620): 30 µM (inactive)
- GI50 (T47D): 38.5 µM (inactive)
- GI50 (TK-10): 27.3 µM (inactive)
- GI50 (U-251): 40.8 µM (inactive)
- GI50 (UACC-257): 38.6 µM (inactive)
- GI50 (UACC-62): 64.1 µM (inactive)
- GI50 (UO-31): 29.2 µM (inactive)
